Results: patent US4847271A, “Antihypercholesterolemic β-lactones” (Merck & Co., Inc., priority 1987, dated 1989)

What follows are molecules tested against T1, HMG-CoA synthase (Rattus norvegicus, UniProt P17425) (assay: HMG-CoA synthase inhibition assay (in vitro, enzyme partially purified from rat liver)). Conditions: HMG-CoA synthase activity; 5 min preincubation, 30°; read-out: IC50.
T1 construct: The livers from male Charles River CD rats (225-350 g) were homogenized in 0.25 M sucrose; from tissue; host or cells: rat liver (male Charles River CD rats), 100,000×g supernatant, ammonium sulfate precipitate, DEAE-52 fraction
T1 sequence (P17425 1-520): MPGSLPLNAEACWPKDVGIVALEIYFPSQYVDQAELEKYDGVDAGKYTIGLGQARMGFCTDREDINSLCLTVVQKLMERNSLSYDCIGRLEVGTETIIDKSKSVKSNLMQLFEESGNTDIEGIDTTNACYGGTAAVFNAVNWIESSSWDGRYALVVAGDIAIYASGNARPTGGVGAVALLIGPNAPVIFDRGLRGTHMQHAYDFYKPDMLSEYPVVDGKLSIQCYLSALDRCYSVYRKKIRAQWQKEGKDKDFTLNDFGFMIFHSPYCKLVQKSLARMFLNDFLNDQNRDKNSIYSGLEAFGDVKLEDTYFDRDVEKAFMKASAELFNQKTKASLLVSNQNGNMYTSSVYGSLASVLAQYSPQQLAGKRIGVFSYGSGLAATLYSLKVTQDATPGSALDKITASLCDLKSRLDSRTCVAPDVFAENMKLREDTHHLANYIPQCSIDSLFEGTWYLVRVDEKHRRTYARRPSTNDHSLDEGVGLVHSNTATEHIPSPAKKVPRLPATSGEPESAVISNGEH
Type: biochemical
Description: The intrinsic HMG-CoA synthase inhibition activity of the compounds of this invention is measured by the standard in vitro protocol described below:
The livers from male Charles River CD rats (225-350 g) were homogenized in 0.25 M sucrose which was adjusted with phenylmethylsulfonylfluoride (PMSF) and N-p-tosyl-1-lysine chloromethyl ketone (TLCK) so that the final concentration of each was 50 and 25 μg/ml, respectively. The homogenate was centrifuged at 15,000×g for 20 minutes, the supernatant filtered through a fine nylon screen to remove most of the fat layer and recentrifuged at 100,000×g for 1 hour. This supernatant was removed and 1 M potassium phosphate, dithiothreitol (DTT) and ethylene glycolbis(β-aminoethyl ether)-N,N,N',N'-tetraacetic acid (EGTA) added to give a final concentration of 0.1 M (pH 7.2), 0.5 mM and 0.1 mM, respectively. Solid ammonium sulfate was added to 50% saturation to the protein solution, it was centrifuged at 15,000×g and the […]. This precipitated protein could be stored at -70° for at least one month with very little loss of activity. The ammonium sulfate rrecipitate was dissolved in an minimal amount of 0.06 M potassium phosphate buffer (pH 7.2) containing 0.5 mM dithiothreitol and 0.1 mM EGTA (referred to as 0.06 M phosphate buffer) and dialyzed overnight against 2 liters of the same buffer to remove the ammonium sulfate and to inactivate HMG-CoA lyase [Clinkenbeard, et al., J. Biol. Chem 250, 3108-3116(1975)].
The dialyzed extract was added to a column of DEAE-52 (Whatman) which had been equilibrated with 0.06 M phosphate buffer (10 mg of protein to 1 ml bed volume of the resin). The DEAE-cellulose was eluted with 0.06 M Phosphate buffer until the optical density at 280 nm was essentially zero. This fraction contained the β-ketoacetyl-CoA thiolase activity. The HMG-CoA synthase was eluted from the column with 0.1 M phosphate buffer (pH 7.2) containing 0.5 mM DTT and 0.1 mM EGTA, and was virtually free of all thiolase activity. The protein was precipitated by the addition of ammonium sulfate to give 50% saturation. This solution was stirred for 10 minutes at 4° C. and the precipitate collected by centrifugation at 15,000 rpm for 10 minutes. The supernatant was discarded and the precipitate dissolved in a minimum of 0.06 M phosphate buffer, pH 7.2 (about 10 ml) and the enzyme stored at -80° C.
HMG-CoA Synthase Inhibition Assay
Enzyme protein (ca. 24 μg) was added to a solution containing 117 mM Tris-HCl (pH 8.0), 11.7 mM MgCl2, 1.17 mM Ethylenediaminetetraacetic acid (EDTA), 0.58 mM dithiothreitol, and the indicated concentrations of the test compound (added as a 2 μg/ml solution in dimethylsulfoxide). The incubation took place in a volume of 0.085 ml at 30° in a shaking water bath. After 5 minutes, 15 μl of a solution containing acetoacetyl-CoA and 0.1 μCi of 1-[^14 C]-acetyl-CoA was added to give a final concentrations of 0.1 and 0.4 mM, respectively. The incubation was continued for 10 more minutes and the reaction stopped by the addition of 50 μl of the assay mixture to 0.2 ml of 6N HCl in a glass scintillation vial. The vial was heated for 1 hour at 120° after which time 0.2 ml more of 6N HCl was again added to each vial and the heating continued for another hour. Following this, 1.0 ml of 0.9% saline was added to each vial and finally 10 ml of scintillation liquid. Radioactivity was determined in a Packard Tri-Carb liquid scintillation counter. Percent inhibition is calculated by the formula: [formula] IC50 values were determined by plotting the log of the concentration of the test compound verses the percentage inhibition and fitting a straight line to the resulting data by using the least squares method.

IC50	Molecule
120 nM	CC(=CC(=O)Sc1ccccn1)C=C(C)CC(C)CCCCC1OC(=O)C1CO (stereo not drawn) [2-pyridyl 11-(3-hydroxymethyl-4-oxo-2-oxetano)-3,5,7-trimethyl-2,4-undecadienthioate]
200 nM	CCCCCCNC(=O)C=C(C)C=C(C)CC(C)CCCCC1OC(=O)C1CO (stereo not drawn) [Example 7, N-n-hexyl 11-(3-hydroxymethyl-4-oxo-2-oxetano)-3,5,7-trimethyl-2,4-undecadienamide]
< 100 nM	CC(=CC(N)=O)C=C(C)CC(C)CCCCC1OC(=O)C1CO (stereo not drawn) [Example 8, 11-(3-hydroxymethyl-4-oxo-2-oxetano)-3,5,7-trimethyl-2,4-undecadienamide]
100 nM	CC(=CC(=O)Nc1ccc(Br)cc1)C=C(C)CC(C)CCCCC1OC(=O)C1CO (stereo not drawn) [Example 9, N--(4-bromophenyl)-11-(3-hydroxymethyl-4-oxo-2-oxetano)-3,5,7-trimethyl-2,4-undecadienamide]
< 100 nM	CC(=CC(=O)NCCO)C=C(C)CC(C)CCCCC1OC(=O)C1CO (stereo not drawn) [Example 10, N--(2-hydroxyethyl)-11-(3-hydroxymethyl-4-oxo-2-oxetano)-3,5,7-trimethyl-2,4-undecadienamide]
270 nM	COCC1C(=O)OC1CCCCC(C)CC(C)=CC(C)=CC(=O)OC (stereo not drawn) [Example 11, methyl 11-(3-methoxymethyl-4-oxo-2-oxetano)-3,5,7-trimethyl-2,4-undecadienoate]
700 nM	CCOCC1C(=O)OC1CCCCC(C)CC(C)=CC(C)=CC(=O)OC (stereo not drawn) [Example 12, methyl 11-(3-ethoxymethyl-4-oxo-2-oxetano)-3,5,7-trimethvl-2.4-undecadienoate]
1000 nM	C=CCOCC1C(=O)OC1CCCCC(C)CC(C)=CC(C)=CC(=O)OC (stereo not drawn) [Example 13, methyl 11-[3-(2-propenyloxymethyl)-4-oxo-2-oxetano]-3,5,7-trimethyl-2,4-undecadienoate]
110 nM	COCC1C(=O)OC1CCCCC(C)CC(C)=CC(C)=CC(=O)O (stereo not drawn) [Example 14, 11-(3-methoxymethyl-4-oxo-2-oxetano)-3,5,7-trimethyl-2,4-undecadienoic acid]
10000 nM	COc1ccc(C(OCC2C(=O)OC2CCCCC(C)CC(C)=CC(C)=CC(=O)O)(c2ccccc2)c2ccccc2)cc1 (stereo not drawn) [Example 15, 11-(3-anisyldiphenylmethyloxymethyl-4-oxo-2-oxetano)-3,5,7-trimethyl-2,4-undecadienoic acid]
240 nM	COC(=O)C=C(C)C=C(C)CC(C)CCCCC1OC(=O)C1COS(C)(=O)=O (stereo not drawn) [Example 16, methyl 11-(3-methanesulfonyloxymethyl-4-oxo-2-oxetano)-3,5,7-trimethyl-2,4-undecadienoate]
140 nM	COC(=O)C=C(C)C=C(C)CC(C)CCCCC1OC(=O)C1COC=O (stereo not drawn) [Example 17, methyl 11-(3-formyloxymethyl-4-oxo-2-oxetano)-3,5,7-trimethyl-2,4-undecadienoate]
500 nM	CC(=CC(=O)OC(C)(C)C)C=C(C)CC(C)CCCCC1OC(=O)C1CO (stereo not drawn) [Example 20, tert-butyl 11-(3-hydroxymethyl-4-oxo-2-oxetano)-3,5,7-trimethyl-2,4-undecadienoate]
2400 nM	COC(=O)C=C(C)C=C(C)CC(C)CCCCC1OC(=O)C1COC(=O)CCC(=O)O (stereo not drawn) [methyl 11-[3-(3-carboxypropionyloxymethyl)-4-oxo-2-oxetano]-3,5,7-trimethyl-2,4-undecadienoate]

Same assay, conditions: at 4.0 μg/ml

percent inhibition	Molecule
86.2%	methyl 11-[3-(N-methylurethanylmethyl)-4-oxo-2-oxetano]-3,5,7-trimethyl-2,4-undecadienoate [Example 19]

Same assay, conditions: at 40 μg/ml

percent inhibition	Molecule
80.6%	methyl 11-(3-urethanylmethyl)-4-oxo-2-oxetano)-3,5,7-trimethyl-2,4-undecadienoate

Same assay, conditions: at 10^-5 M (IC25); read-out: percent inhibition

inhibition at 10 µM	Molecule
25.4%	CCC(C)C(=O)OCC1C(=O)OC1CCCCC(C)CC(C)=CC(C)=CC(=O)OC (stereo not drawn) [Example 18, methyl 11-[3-(2-methylbutyryloxymethyl)-4-oxo-2-oxetano]-3,5,7-trimethyl-2,4-undecadienoate]

Same assay, conditions: printed as (40 μg/ml) without footnote; read-out: IC50 (value printed in brackets as a concentration) (converted)

IC50	Molecule
79300 nM	COCC1C(=O)OC1CCCCC(C)CC(C)=CC(C)=CC(=O)OC(c1ccccc1)c1ccccc1 (stereo not drawn) [Example 14 Step B, Diphenylmethyl 11-(3-methoxymethyl-4-oxo-2-oxetano)-3,5,7-trimethyl-2,4-undecadienoate]
